According to ChEMBL document CHEMBL1156813 (J Med Chem, 2010):
In brackets after ≈: the same amount, converted by molar mass.

Tests used:
[1] = target: Cannabinoid receptor 1 (Homo sapiens, UniProt P21554); assay: biochemical; assay type: cell-based, CHO
[2] = physchem; settings: phosphate buffered saline, pH 7.4
[3] = target: Cannabinoid receptor 2 (Homo sapiens, UniProt P34972); assay: biochemical
[4] = physchem; settings: phosphate buffered saline, pH 2
[5] = target: Acetylcholinesterase (Homo sapiens, UniProt P22303); assay: biochemical
Sequence of Acetylcholinesterase (P22303 whole entry): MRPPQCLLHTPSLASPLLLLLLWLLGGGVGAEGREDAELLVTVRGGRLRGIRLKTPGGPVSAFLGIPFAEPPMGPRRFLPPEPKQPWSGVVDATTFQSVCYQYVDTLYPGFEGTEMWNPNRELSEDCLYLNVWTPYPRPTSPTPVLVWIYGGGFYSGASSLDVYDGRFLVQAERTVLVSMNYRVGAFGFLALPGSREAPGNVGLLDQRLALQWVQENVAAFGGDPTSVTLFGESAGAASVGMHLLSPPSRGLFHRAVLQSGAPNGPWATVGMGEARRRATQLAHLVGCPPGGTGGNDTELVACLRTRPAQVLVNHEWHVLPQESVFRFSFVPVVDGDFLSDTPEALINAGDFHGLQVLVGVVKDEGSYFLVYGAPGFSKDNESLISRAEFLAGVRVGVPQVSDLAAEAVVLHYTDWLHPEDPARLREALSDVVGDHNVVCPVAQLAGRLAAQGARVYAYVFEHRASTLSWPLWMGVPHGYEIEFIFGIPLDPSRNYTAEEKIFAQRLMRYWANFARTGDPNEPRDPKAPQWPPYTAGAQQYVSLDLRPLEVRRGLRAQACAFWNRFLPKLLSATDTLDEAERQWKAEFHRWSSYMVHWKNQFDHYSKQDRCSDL
Description: Inhibition of human recombinant AChE expressed in HEK293 cells by photometry

Sequence of Cannabinoid receptor 2 (P34972 whole entry): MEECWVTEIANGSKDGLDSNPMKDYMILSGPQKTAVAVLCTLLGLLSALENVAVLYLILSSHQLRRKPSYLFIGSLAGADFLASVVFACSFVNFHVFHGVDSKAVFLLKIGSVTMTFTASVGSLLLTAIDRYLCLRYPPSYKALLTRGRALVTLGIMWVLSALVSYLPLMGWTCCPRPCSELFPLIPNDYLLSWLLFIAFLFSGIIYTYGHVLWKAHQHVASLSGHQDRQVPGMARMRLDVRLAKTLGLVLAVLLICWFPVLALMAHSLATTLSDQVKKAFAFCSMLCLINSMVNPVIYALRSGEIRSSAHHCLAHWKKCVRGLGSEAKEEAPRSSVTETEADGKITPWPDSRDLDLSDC
Sequence of Cannabinoid receptor 1 (P21554 whole entry): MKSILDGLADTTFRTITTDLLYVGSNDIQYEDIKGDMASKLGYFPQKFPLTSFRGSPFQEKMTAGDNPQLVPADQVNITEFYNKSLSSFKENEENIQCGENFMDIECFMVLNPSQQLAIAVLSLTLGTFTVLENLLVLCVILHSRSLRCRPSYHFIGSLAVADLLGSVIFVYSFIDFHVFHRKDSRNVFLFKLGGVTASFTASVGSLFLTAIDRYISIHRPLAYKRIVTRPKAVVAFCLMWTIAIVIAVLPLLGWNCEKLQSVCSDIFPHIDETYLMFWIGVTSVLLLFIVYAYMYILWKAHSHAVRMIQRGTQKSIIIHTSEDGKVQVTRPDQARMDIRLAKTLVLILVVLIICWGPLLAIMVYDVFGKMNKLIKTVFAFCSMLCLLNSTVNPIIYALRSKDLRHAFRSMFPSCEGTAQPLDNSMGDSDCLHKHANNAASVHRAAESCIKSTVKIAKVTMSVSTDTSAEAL

CN1CCC(N/C(=N\S(=O)(=O)c2ccc(Cl)cc2)N2CC(c3ccccc3)C(c3ccc(Cl)cc3)=N2)CC1 (stereo unspecified)
Ki [1]: 19 nM | solubility kinetic [2]: 11 µM (≈ 6.28 µg/mL) | Ki [3]: > 1000 nM | solubility kinetic [4]: 65 µM (≈ 37.1 µg/mL)

CN(C)CCCN/C(=N\S(=O)(=O)c1ccc(Cl)cc1)N1CC(c2ccccc2)C(c2ccc(Cl)cc2)=N1.Cl (stereo unspecified)
Ki [1]: 3.1 nM | solubility kinetic [2]: 38 µM | Ki [3]: > 1000 nM | solubility kinetic [4]: > 100 µM

CC(C)(O)CN=C(NS(=O)(=O)c1ccc(Cl)cc1)N1CC(c2ccccc2)C(c2ccc(Cl)cc2)=N1 (stereo unspecified)
Ki [1]: 43 nM | solubility kinetic [2]: 4 µM (≈ 2.18 µg/mL) | Ki [3]: > 1000 nM | solubility kinetic [4]: 4 µM (≈ 2.18 µg/mL)

CN(C)CCN1CCN(/C(=N\S(=O)(=O)c2ccc(Cl)cc2)N2CC(c3ccccc3)C(c3ccc(Cl)cc3)=N2)CC1 (stereo unspecified)
Ki [1]: 9.6 nM | solubility kinetic [2]: 4 µM (≈ 2.45 µg/mL) | Ki [3]: > 1000 nM | solubility kinetic [4]: 65 µM (≈ 39.9 µg/mL)

O=S(=O)(/N=C(\NCCCCNc1c2c(nc3ccccc13)CCCC2)N1CC(c2ccccc2)C(c2ccc(Cl)cc2)=N1)c1ccc(Cl)cc1 (stereo unspecified)
Ki [1]: 42 nM | Ki [3]: > 1000 nM

O=S(=O)(N=C(NCCCCN1CCCC1)N1CC(c2ccccc2)C(c2ccc(Cl)cc2)=N1)c1ccc(Cl)cc1 (stereo unspecified)
Ki [1]: 27 nM | solubility kinetic [2]: 11 µM (≈ 6.58 µg/mL) | Ki [3]: > 1000 nM | solubility kinetic [4]: 38 µM (≈ 22.7 µg/mL)

CCc1c(C(=O)NN2CCCCC2)nc(-c2ccccc2Cl)n1-c1ccc(Cl)cc1
Ki [1]: 14 nM | Ki [3]: > 1000 nM | IC50 [5]: > 31600 nM

O=S1(=O)CCN(/C(=N\S(=O)(=O)c2ccc(Cl)cc2)N2CC(c3ccccc3)C(c3ccc(Cl)cc3)=N2)CC1 (stereo unspecified)
Ki [1]: 31 nM | solubility kinetic [2]: < 3 µM | Ki [3]: 571 nM | solubility kinetic [4]: < 7 µM

CNC(=NS(=O)(=O)c1ccc(Cl)cc1)N1CC(c2ccccc2)C(c2ccc(Cl)cc2)=N1 (stereo not drawn) [RAC-IBIPINABANT]
solubility kinetic [2]: 2 µM (≈ 0.975 µg/mL) | solubility kinetic [4]: 4 µM (≈ 1.95 µg/mL)
